US12421211B2, “Heterocyclic compounds” (Hoffmann-La Roche Inc., priority 2021, dated 2025)

What follows are compounds tested on Acinetobacter baumannii ATCC17961 (assay: Antimicrobial susceptibility testing: 90% growth inhibitory concentration (IC90) determination). Settings: Acinetobacter baumannii, ATCC17961, 16 h, 90% growth inhibitory concentration, Acinetobacter baumannii ATCC17961, Iso-Sensitest broth, OD 600 nm over 16 h; read-out: ATCC 17961 IC90.
Type: cell-based
Method in brief: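 Growth inhibition derived in log phase from OD600 kinetics (every 20 minutes, 16h, 35±2° C) of ATCC17961 in Iso-Sensitest medium, inoculum ~5×10^5 CFU/ml. Compounds tested as twofold series, 10 points (e.g. 50 to 0.097 μM final); IC90 and IC50 reported.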

| IC90 [µM] | SMILES |
| --- | --- |
| 0.95 | Cn1c(-c2ccc(-c3cn(CCOC(F)F)nc3C(F)(F)F)c(F)c2F)cnc1C(=O)Nc1ccc(C(=O)N2CCN(C(=O)C3CCNCC3)CC2)c(Cl)c1 [Example E6, N-[3-chloro-4-[4-(piperidine-4-carbonyl)piperazine-1-carbonyl]phenyl]-5-[4-[1-[2-(difluoromethoxy)ethyl]-3-(trifluoromethyl)pyrazol-4-yl]-2,3-difluoro-phenyl]-1-methyl-imidazole-2-carboxamide; formic acid] |
| 0.21 | COCCn1ncc(-c2ccc(-c3cnc(C(=O)Nc4ccc(C(=O)N5CCNCC5)c(Cl)c4)n3C)c(F)c2F)c1C [Example E7, N-[3-chloro-4-(piperazine-1-carbonyl)phenyl]-5-[2,3-difluoro-4-[1-(2-methoxyethyl)-5-methyl-pyrazol-4-yl]phenyl]-1-methyl-imidazole-2-carboxamide; 2,2,2-trifluoroacetic acid] |
| 0.2 | COCCn1ncc(-c2ccc(-c3cnc(C(=O)Nc4ccc(C(=O)N5CCN(C(=O)[C@@H]6C[C@@H](O)CN6)CC5)c(C)c4)n3C)c(F)c2F)c1C [Example E8, 5-[2,3-difluoro-4-[1-(2-methoxyethyl)-5-methyl-pyrazol-4-yl]phenyl]-N-[4-[4-[(2S,4R)-4-hydroxypyrrolidine-2-carbonyl]piperazine-1-carbonyl]-3-methyl-phenyl]-1-methyl-imidazole-2-carboxamide] |
| 0.065 | COCCn1ncc(-c2ccc(-c3cnc(C(=O)Nc4ccc(C(=O)N5CCN(C(=O)[C@@H]6C[C@@H](O)CN6)CC5)c(Cl)c4)n3C)c(F)c2F)c1C [Example E9, N-[3-chloro-4-[4-[(2S,4R)-4-hydroxypyrrolidine-2-carbonyl]piperazine-1-carbonyl]phenyl]-5-[2,3-difluoro-4-[1-(2-methoxyethyl)-5-methyl-pyrazol-4-yl]phenyl]-1-methyl-imidazole-2-carboxamide; 2,2,2-trifluoroacetic acid] |
| 0.17 | COCCn1ncc(-c2ccc(-c3cnc(C(=O)Nc4ccc(C(=O)NCC5CCNCC5)c(Cl)c4)n3C)c(F)c2F)c1C [Example E10, N-[3-chloro-4-(4-piperidylmethyl-carbamoyl)phenyl]-5-[2,3-difluoro-4-[1-(2-methoxyethyl)-5-methyl-pyrazol-4-yl]phenyl]-1-methyl-imidazole-2-carboxamide; 2,2,2-trifluoroacetic acid] |
| 0.061 | COCCn1ncc(-c2ccc(-c3cnc(C(=O)Nc4ccc(C(=O)N5CCN(C(=O)C6CCNCC6)CC5)c(Cl)c4)n3C)c(F)c2F)c1C [Example E11, N-[3-chloro-4-[4-(piperidine-4-carbonyl)piperazine-1-carbonyl]phenyl]-5-[2,3-difluoro-4-[1-(2-methoxyethyl)-5-methyl-pyrazol-4-yl]phenyl]-1-methyl-imidazole-2-carboxamide; 2,2,2-trifluoroacetic acid] |
| 0.15 | Cn1c(-c2ccc(-c3c[nH]nc3C(F)(F)F)c(F)c2)cnc1C(=O)Nc1ccc(C(=O)N2CCN(C(=O)C3CCN(CC(N)=O)CC3)CC2)c(Cl)c1 [Example E12, N-[4-[4-[1-(2-amino-2-oxo-ethyl)piperidine-4-carbonyl]piperazine-1-carbonyl]-3-chloro-phenyl]-5-[3-fluoro-4-[3-(trifluoromethyl)-1H-pyrazol-4-yl]phenyl]-1-methyl-imidazole-2-carboxamide; 2,2,2-trifluoroacetic acid] |
| 0.38 | COCCn1ncc(-c2ccc(-c3cnc(C(=O)Nc4ccc(C(=O)N5CCN(C(=O)C6CCNCC6)CC5)c(Cl)c4)n3C)c(F)c2F)c1COC [Example E13, N-[3-chloro-4-[4-(piperidine-4-carbonyl)piperazine-1-carbonyl]phenyl]-5-[2,3-difluoro-4-[1-(2-methoxyethyl)-5-(methoxymethyl)pyrazol-4-yl]phenyl]-1-methyl-imidazole-2-carboxamide; formic acid] |
